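1) Cells in 96-well plates. 2) Compound, 48 h, 5 concentrations. 3) Linear interpolation between surrounding doses. 4) Unreached endpoint = highest concentration. Here, GI50 denotes the concentration required for 50% inhibition of growth.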 Activity calls are given as the source filed them. Rule as the data show it: active = GI50 up to about 1.1 µM and inactive = higher.

What all share (test): inhibition of tumour cell growth, NCI panel, 48 h
Test [1] concerns DU-145.
The subject of test [2] is NCI-H226.
Test [3] concerns MDA-N.
Test [4] relates to UO-31.
Test [5] has as its system OVCAR-3.
Test [6] has as its system U-251.
Test [7] deals with HL-60.
Test [8] deals with KM12.
Test [9] relates to NCI-H522.
For test [10], the system named is IGROV-1.
For test [11], the system named is SK-MEL-28.
The test system of test [12] is SW-620.
The subject of test [13] is RPMI-8226.
Test [14] relates to UACC-257.
Test [15] deals with HT-29.
The test system of test [16] is MDA-MB-231.
Test [17] relates to HCT-15.
For test [18], the system named is SF-295.
Test [19] concerns OVCAR-4.
Test [20] deals with A498.

Regarding `O=C(Oc1ccccc1)c1cc2cc(CCl)ccc2oc1=O`, the GI50 in test [1] is 27.7 µM (inactive); in [2] it was > 100 µM (inactive); in test [3], 19.9 µM (inactive); in test [4], 20.4 µM (inactive); in test [5], 29.1 µM (inactive); in test [6] it was 44.6 µM (inactive). Besides, the GI50 is 18.2 µM (inactive) in test [7]; 63.4 µM (inactive) in test [8]; 6.17 µM (inactive) in test [9]; 23.3 µM (inactive) in [10]; 13.3 µM (inactive) in test [11]; 61.9 µM (inactive) in [12]. In addition, the GI50 in [13] is 33 µM (inactive); in test [14], 11.6 µM (inactive); in test [15] it was 24.4 µM (inactive); in test [16], 32.1 µM (inactive); in test [17], 31.5 µM; in test [18], 32.6 µM (inactive). Also, the GI50 is 24.8 µM (inactive) in [19] and 19.1 µM (inactive) in test [20].

Turning to `O=C(O)C1CCCN1Cc1c[nH]c2ccccc12` (stereo not given), the GI50 in [1], in test [2], in [3], in [4], in test [5] and in [6] was > 100 µM (inactive) in each case. Further, the GI50 in [7], in test [8], in [9], in [10], in test [11] and in test [12] was > 100 µM (inactive) each time. Also, the GI50 was > 100 µM (inactive) in test [13]; > 100 µM (inactive) in test [14]; > 100 µM (inactive) in test [15]; > 100 µM (inactive) in test [16]; more than 100 µM in test [17]; > 100 µM (inactive) in test [18]. Further, the GI50 in test [19] and in test [20] was > 100 µM (inactive) in each case.

Turning to `C(=N/Nc1ccc(-c2nc3ccccc3[nH]2)cc1)/c1c(-c2ccccc2)[nH]c2ccccc12`, the GI50 in test [1] is 0.733 µM (active); in test [2], 0.408 µM (active); in test [3], 0.0303 µM (active); in test [4], 0.405 µM (active); in test [5] it was 0.219 µM (active); in [6] it was 0.322 µM (active). Moreover, the GI50 is 0.211 µM (active) in test [7]; 0.4 µM (active) in test [8]; 0.34 µM (active) in test [9]; 0.728 µM (active) in test [10]; 0.638 µM (active) in test [11]; 0.317 µM (active) in [12]. For the same compound, the GI50 was 0.268 µM (active) in test [13]; 0.678 µM (active) in test [14]; 0.222 µM (active) in test [15]; 0.475 µM (active) in test [16]; 0.409 µM in test [17]; 0.294 µM (active) in test [18]. For the same compound, the GI50 in test [19] is 2.78 µM (inactive); in test [20] it was 0.516 µM (active).

`O=C1c2ccccc2C(=O)c2c(/C=C\N3CCCCC3)ccnc21`: the GI50 in test [1] is 1.44 µM (inactive); in test [2], 2.7 µM (inactive); in test [3] it was 0.383 µM (active); in [4], 2.01 µM (inactive); in test [5], 1.75 µM (inactive); in [6], 2.99 µM (inactive). Also, the GI50 in test [7] is 3.01 µM (inactive); in [8], 3.97 µM (inactive); in test [9] it was 2.55 µM (inactive); in test [10], 11.1 µM (inactive); in test [11], 1.11 µM (active); in test [12] it was 0.839 µM (active). Besides, the GI50 in [13] is 2.29 µM (inactive); in [14], 1.02 µM (active); in test [15], 5.57 µM (inactive); in [16], 19.1 µM (inactive); in [17], 0.582 µM; in test [18], 2.47 µM (inactive). Moreover, the results for the GI50 in test [19] and in test [20] were 9.57 µM (inactive) and 8.99 µM (inactive), respectively.

For the compound `COC(=O)c1c(O)ccc2c1c1c(n2Cc2ccc(Cl)cc2Cl)C(=O)c2ccccc2C1=O`, the GI50 in test [1] is 11.6 µM (inactive); in test [2], 10.9 µM (inactive); in test [3] it was 12.1 µM (inactive); in [4] it was 10.5 µM (inactive); in test [5], 6.37 µM (inactive); in test [6], 10.8 µM (inactive). Besides, the GI50 in [7] was 13.8 µM (inactive); in [8], 3.41 µM (inactive); in test [9], 7.46 µM (inactive); in [10] it was 11.2 µM (inactive); in test [11] it was 16.2 µM (inactive); in test [12], 13.4 µM (inactive). The GI50 in test [13] was 2.88 µM (inactive); in test [14], 15.2 µM (inactive); in test [15], 17.6 µM (inactive); in [16], 10.9 µM (inactive); in [17], 5.56 µM; in test [18] it was 11.8 µM (inactive). Also, the figures for the GI50 in [19] and in test [20] were 1.95 µM (inactive) and 18.1 µM (inactive), respectively.

For `NS(=O)(=O)c1ccc(/N=N/c2cnc(O)c(O)c2)cc1`, the GI50 in test [1] was 78.2 µM (inactive); in test [2] it was > 100 µM (inactive); in [3], > 100 µM (inactive); in test [4], > 100 µM (inactive); in test [5], 28.8 µM (inactive); in test [6], 20.8 µM (inactive). In addition, the GI50 in test [7] is > 100 µM (inactive); in test [8], 96.8 µM (inactive); in test [9], 14.1 µM (inactive); in [10], > 100 µM (inactive); in test [11], > 100 µM (inactive); in [12], > 100 µM (inactive). Moreover, the GI50 in test [13] was > 100 µM (inactive); in test [14], 23 µM (inactive); in [15], > 100 µM (inactive); in test [16], > 100 µM (inactive); in [17], more than 100 µM; in [18] it was > 100 µM (inactive). For the same compound, the GI50 is 50 µM (inactive) in test [19] and > 100 µM (inactive) in [20].

`CCN(CC)/[N+]([O-])=N/OCOC(C)=O`: the GI50 in test [1], in [2], in [3], in [4], in test [5] and in [6] was > 100 µM (inactive) in each case. Further, the GI50 was 65.9 µM (inactive) in [7]; > 100 µM (inactive) in test [8]; > 100 µM (inactive) in test [9]; > 100 µM (inactive) in [10]; > 100 µM (inactive) in test [11]; > 100 µM (inactive) in test [12]. Moreover, the GI50 in test [13] was > 100 µM (inactive); in test [14] it was > 100 µM (inactive); in test [15], > 100 µM (inactive); in test [16], > 100 µM (inactive); in test [17] it was more than 100 µM; in test [18], > 100 µM (inactive). Moreover, the GI50 in test [19] and in [20] was > 100 µM (inactive) in each case.

The values are drawn from ChEMBL document CHEMBL1201862, “PubChem BioAssay data set” (2004).
